Paper PMC11048566, “The Development of a Regulator of Human Serine Racemase for N-Methyl-D-aspartate Function” (Biomedicines, 2024)

Assays:
[1] = target: T1, hSR (Homo sapiens, UniProt Q9GZT4); assay: Intrinsic tryptophan fluorescence (ITF) binding assay; conditions: 0.25 mM ATP, Hill slope model
T1 construct: 6xHis (C); made in house; host or cells: E. coli BL21 (pET42b-hSR)
T1 sequence (Q9GZT4 1-340): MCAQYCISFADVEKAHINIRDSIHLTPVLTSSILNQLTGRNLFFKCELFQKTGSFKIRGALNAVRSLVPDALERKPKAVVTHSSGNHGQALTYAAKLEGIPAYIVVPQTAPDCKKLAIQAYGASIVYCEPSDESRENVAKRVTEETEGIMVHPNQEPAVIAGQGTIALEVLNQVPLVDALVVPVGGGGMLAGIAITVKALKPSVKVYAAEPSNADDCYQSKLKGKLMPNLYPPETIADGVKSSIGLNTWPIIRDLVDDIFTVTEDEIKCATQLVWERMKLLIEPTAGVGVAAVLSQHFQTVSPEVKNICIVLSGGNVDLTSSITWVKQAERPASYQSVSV
Experimental: First, 30 µL of 2 µM hSR protein was added into 270 µL buffer (100 mM Tris-HCl, pH 8.0, 1 mM MgCl2, 0.25 mM ATP, 50 µM PLP, 10% DMSO) with ligand and subsequently reacted for 20 min at room temperature. All samples were measured in triplicates and excited at 282 nm. The emission spectra were measured with a 5 nm bandwidth resolution at 300 to 400 nm wavelengths by a Varioskan™ LUX multimode microplate reader (Thermo Fisher Scientific, Lagoas Park, Porto Salvo, Portugal). The fluorescence intensity collected at 304 nm was analyzed using GraphPad Prism 8 software (Dotmatics, Boston, MA, USA). The dissociation constant (Kd) was derived by specific binding with the Hill slope model: Y = Bmax × X^n/(Kd^n + X^n), with X being the ligand concentration, maximum number of binding sites (Bmax) being the maximum specific binding, and n being Hill slope.
The Hill coefficient (n) of 1.28 is close to n = 1, indicating a noncooperative binding.

[2] = system: MK-801-induced PPI deficit; assay: Prepulse inhibition test in MK-801-treated mice; assay type: in vivo, C57BL/6J male mice; conditions: 1 mg/kg oral, 0.3 mg/kg MK-801 IP; PPI 6 and PPI 10; p < 0.05, n = 14
Experimental: (§1) For behavioral studies, α12G was dissolved in 35% PEG-400 and administrated by oral gavage 20 min prior to the MK-801 insult. MK-801 (Sigma-Aldrich, St. Louis, MO, USA) was administrated via intraperitoneal (IP) injection 20 min prior to the behavioral tests, with the dosage of 0.2 mg/kg for the open field test and novel object recognition test and 0.3 mg/kg for the prepulse inhibition test.
C57BL/6J male mice were randomly assigned into five groups, 6–21 mice per group, (1) saline control, (2) MK-801, (3) 1 mg/kg α12G + MK-801, (4) 3.5 mg/kg α12G + MK-801, and (5) 10 mg/kg α12G + MK-801. Prepulse inhibition (PPI), a measurement of sensorimotor gating, served as a biomarker of schizophrenia. Using the SR-LAB startle apparatus (San Diego Instruments, San Diego, CA, USA), the PPI ratio with startle response was elicited by various acoustic stimuli. Each C57BL/6J male mouse was placed in an acrylic cylinder in a dark and sound-insulated chamber. With a constant 65 dB background noise, the session comprised a 5 min acclimation period followed by 4 blocks including a total of 64 trials. […] The ratio of PPI was calculated from the startle response by the following formula: PPI % = 100 × [(PA score) − (pp-P score)]/(PA score), while the PA score was averaged from PA values in the two middle blocks.

[3] = system: MK-801-induced hyperactivity; assay: Open field test in MK-801-treated mice; assay type: in vivo, C57BL/6J male mice; conditions: oral gavage 20 min before 0.2 mg/kg MK-801 IP; p < 0.001, n = 8
Experimental: as §1
C57BL/6J male mice were randomly assigned into six groups, 7–12 mice per group, (1) saline control, (2) MK-801, (3) 1 mg/kg α12G + MK-801, (4) 3 mg/kg α12G + MK-801, (5) 10 mg/kg α12G + MK-801, and (6) 30 mg/kg α12G + MK-801. The mice were placed in a Plexiglas cage (37.5 × 21.5 × 18 cm), and their spontaneous locomotor activities were measured for 60 min using a Photobeam Activity System (PAS) open field (San Diego Instruments, San Diego, CA, USA). The total photo beam breaks of each mouse were measured as an index of locomotor activity.

Bmax [1]: 96.86 fmol/mg | Kd ([1]; read-out: binding affinity (Kd)): 240 nM
Structure (SMILES): O=C(Oc1cc(C(=O)Oc2cc(C(=O)O[C@H]3OC[C@@H](OC(=O)c4cc(O)c(O)c(OC(=O)c5cc(O)c(O)c(OC(=O)c6cc(O)c(O)c(O)c6)c5)c4)[C@H](OC(=O)c4cc(O)c(O)c(OC(=O)c5cc(O)c(O)c(OC(=O)c6cc(O)c(O)c(O)c6)c5)c4)[C@H]3OC(=O)c3cc(O)c(O)c(OC(=O)c4cc(O)c(O)c(OC(=O)c5cc(O)c(O)c(O)c5)c4)c3)cc(O)c2O)cc(O)c1O)c1cc(O)c(O)c(O)c1 [α12G, (2R,3R,4S,5R)-tetrahydro-2H-pyran-2,3,4,5-tetrayl tetrakis(3-((3,4-dihydroxy-5-((3,4,5-trihydroxybenzoyl)oxy)benzoyl)ox)-4,5-dihydroxybenzoate)]
Effect on PPI deficits [2]: significantly alleviate PPI deficits | Effect on MK-801-induced hyperactivity (locomotor activity) [3]: alleviated the MK-801-induced hyperactivity
